Data set [1] concerns DU145 (prostate cancer). The data set can be described thus: Effect on tumor cell lines, viable cell count by trypan blue exclusion (Latham et al.): DU145. It is filed as cell-based. To be noted: Homo sapiens, DU-145, 96 h, DU145 prostate cancer cells, viable cell count 96 hours after treatment.
Data set [2] concerns K562 (chronic myelogenous leukaemia). Kind of data set: Effect on tumor cell lines, viable cell count by trypan blue exclusion (Latham et al.): K562. To be noted: Homo sapiens, K562, 96 h, K562 chronic myelogenous leukaemia cells, viable cell count 96 hours after treatment. The format is cell-based. Here is the method:
The effect of the compounds of the invention on tumor cells was determined by the assay described by Latham et al., Oncogene 12:827-837 (1996). Tumor cells DU145 (prostate cancer), K562 (chronic myelogenous leukaemia), BT20 (breast carcinoma), H157 (non small cell lung carcinoma), or DLD1 (colon carcinoma) were plated in 6-well dishes at a cell density of 1.0×10^5 cells per 35-mm^2 well. […] The total number of viable cells was determined 96 hours later by trypsinizing the wells and counting the number of viable cells, as determined by trypan blue exclusion, using a hemacytometer. Normal HFL cells were treated with the same compounds under the same conditions of concentration and time.

Where only a bound is given, the exact number is not on record here.

By IC50 is commonly meant the point on the concentration scale where inhibition reaches its midpoint. Usually melting point stands for the temperature, or range, at which the solid turns liquid.

The compound `N#C/C(=C\c1ccc(O)cc1O)S(=O)(=O)Cc1ccc(Cl)cc1Cl` [Example 92] displayed a melting point of 220 to 230 °C. Moreover, the IC50 in data set [1] fell in the range of 50 to 100 µM. This compound also had an IC50 in data set [2] of 25 to 50 µM.

Consider `COc1ccc(/C=C(\C#N)S(=O)(=O)Cc2ccc(Cl)cc2Cl)c(OC)c1OC` [Example 93], for which the melting point was 150 to 165 °C. The same compound showed a concentration for half-maximal inhibition (IC50) in data set [1] of 25 to 50 µM. Also, the IC50 in data set [2] was 25 to 50 µM.

On to `CCOc1ccc(/C=C(\C#N)S(=O)(=O)Cc2ccc(Cl)cc2Cl)cc1OC` [Example 94], for which the melting point is 126 to 131 °C. This compound returned a half-inhibitory concentration (IC50) in data set [1] of 50 to 100 µM. The compound also returned an IC50 in data set [2] of 25 to 50 µM.

Compound `N#C/C(=C\c1ccc(F)cc1Cl)S(=O)(=O)Cc1ccc(Cl)cc1Cl` [Example 95] returned a melting point of 142 to 148 °C. Further, in data set [1], the IC50 lay in the range of 50 to 100 µM. The IC50 in data set [2] lay within 50 to 100 µM.

Compound `Cc1ccc(C)c(/C=C(\C#N)S(=O)(=O)Cc2ccc(Cl)cc2Cl)c1` [Example 96] yielded a melting point of 142 to 149 °C. Besides, the IC50 in data set [1] is > 100 µM. Moreover, the IC50 in data set [2] lay within 50 to 100 µM.

`Cc1ccc(/C=C(\C#N)S(=O)(=O)Cc2ccc(Cl)cc2Cl)cc1C` [Example 97] gave a melting point of 126 to 142 °C. In addition, the IC50 in data set [1] is > 100 µM. In data set [2], the IC50 was > 100 µM.

With `N#C/C(=C\c1ccc(Br)cc1)S(=O)(=O)Cc1ccc(Cl)cc1Cl` [Example 98], the melting point was in the range of 126 to 138 °C. The same compound showed an IC50 in data set [1] of 50 to 100 µM. The same compound yielded an IC50 in data set [2] of 25 to 50 µM.

The compound `COc1ccc(/C=C(\C#N)S(=O)(=O)Cc2ccc(Cl)cc2Cl)cc1` [Example 99] gave a melting point of 114 to 127 °C. For the same compound, the IC50 in data set [1] was > 100 µM. Also, in data set [2], the half-inhibitory concentration (IC50) was in the range of 50 to 100 µM.

Turning to `N#C/C(=C\c1ccc(Cl)cc1)S(=O)(=O)Cc1ccc(Cl)cc1Cl` [Example 100], the melting point lay in the range of 119 to 125 °C. Further, the IC50 in data set [1] was > 100 µM. Also, the IC50 in data set [2] is > 100 µM.

Turning to `Cc1cc(C)cc(/C=C(\C#N)S(=O)(=O)Cc2ccc(Br)cc2)c1` [Example 101], the melting point lay within 169 to 172 °C. In data set [1], the IC50 was > 100 µM. In addition, in data set [2], the IC50 was in the range of 50 to 100 µM.

`Cc1ccoc1/C=C(\C#N)S(=O)(=O)Cc1ccc(Cl)cc1Cl` [Example 103]: the melting point lay in the range of 184 to 189 °C. In addition, the IC50 in data set [1] was > 100 µM. Further, the IC50 in data set [2] is 50 to 100 µM.

Compound `N#C/C(=C\c1ccoc1)S(=O)(=O)Cc1ccc(Cl)cc1Cl` [Example 104] gave a melting point of 116 to 122 °C. Moreover, the IC50 in data set [1] is > 100 µM. The same compound gave an IC50 in data set [2] of 50 to 100 µM.

As to `COc1cc(/C=C(\C#N)S(=O)(=O)Cc2ccc(Cl)cc2Cl)cc(OC)c1OC` [Example 105], the melting point was in the range of 147 to 152 °C. The compound also displayed an IC50 in data set [1] of 25 to 50 µM. Further, in data set [2], the IC50 lay within 10 to 25 µM.

In the case of `COc1ccc(OC)c(/C=C(\C#N)S(=O)(=O)Cc2ccc(Cl)cc2Cl)c1` [Example 106], the melting point lay within 132 to 137 °C. The IC50 in data set [1] was in the range of 50 to 100 µM. Moreover, the IC50 in data set [2] lay within 50 to 100 µM.

As to `COc1cc(OC)c(OC)cc1/C=C(\C#N)S(=O)(=O)Cc1ccc(Cl)cc1Cl` [Example 107], the melting point was 164 to 170 °C. The compound further came in with an IC50 in data set [1] of 50 to 100 µM. Also, the IC50 in data set [2] is > 100 µM.

`N#C/C(=C\c1ccccc1O)S(=O)(=O)Cc1ccc(Cl)cc1Cl` [Example 108] showed a melting point of 219 to 223 °C. Moreover, the IC50 in data set [1] is > 100 µM. Further, the IC50 in data set [2] is > 100 µM.

In turn, `N#C/C(=C\c1ccc(O)c([N+](=O)[O-])c1)S(=O)(=O)Cc1ccc(Cl)cc1Cl` [Example 109] came in with a melting point of 169 to 171 °C. Further, the IC50 in data set [1] was > 100 µM. For the same compound, in data set [2], the IC50 is > 100 µM.

Regarding `COc1ccc(/C=C(\C#N)S(=O)(=O)Cc2ccc(Cl)cc2Cl)cc1OC` [Example 110], the melting point was in the range of 149 to 153 °C. Besides, in data set [1], the IC50 lay in the range of 50 to 100 µM. The compound also came in with an IC50 in data set [2] of 25 to 50 µM.

On to `COc1ccc(/C=C(\C#N)S(=O)(=O)Cc2ccc(Cl)cc2Cl)c(OC)c1` [Example 111], for which the melting point fell in the range of 165 to 170 °C. The IC50 in data set [1] is > 100 µM. In data set [2], the IC50 is > 100 µM.

As for `N#C/C(=C\c1ccccc1)S(=O)(=O)Cc1ccc(Cl)cc1Cl` [Example 112], the melting point lay in the range of 219 to 223 °C. The same compound returned an IC50 in data set [1] of 50 to 100 µM. This compound registered an IC50 in data set [2] of 50 to 100 µM.

Consider `COc1ccc(/C=C(\C#N)S(=O)(=O)Cc2ccc(Cl)cc2Cl)c(O)c1` [Example 113], for which the melting point was in the range of 242 to 247 °C. In data set [1], the IC50 was > 100 µM. Moreover, the IC50 in data set [2] was > 100 µM.

`Cc1ccoc1/C=C(\C#N)S(=O)(=O)Cc1cccc(Br)c1` [Example 114] displayed a melting point of 122 to 126 °C. In data set [1], the IC50 is > 100 µM. For the same compound, the IC50 in data set [2] is > 100 µM.

As for `N#C/C(=C\c1ccoc1)S(=O)(=O)Cc1cccc(Br)c1` [Example 115], the melting point fell in the range of 128 to 132 °C. Further, the IC50 in data set [1] was > 100 µM. Further, the IC50 in data set [2] is > 100 µM.

Turning to `N#C/C(=C\c1ccc(O)c(O)c1)S(=O)(=O)Cc1cccc(Br)c1` [Example 116], the melting point was 119 to 121 °C. The IC50 in data set [1] was > 100 µM. Further, the IC50 in data set [2] was > 100 µM.

Take `N#C/C(=C\c1cccc(O)c1)S(=O)(=O)Cc1cccc(Br)c1` [Example 117]: the melting point was in the range of 160 to 165 °C. The IC50 in data set [1] was > 100 µM. Besides, the IC50 in data set [2] is > 100 µM.

As for `Cc1ccc(/C=C(\C#N)S(=O)(=O)Cc2ccc(Br)cc2)s1` [Example 118], the melting point lay in the range of 142 to 148 °C. The IC50 in data set [1] was > 100 µM. Also, the IC50 in data set [2] is > 100 µM.

Consider `Cc1ccc(C)c(/C=C(\C#N)S(=O)(=O)Cc2ccc(Br)cc2)c1` [Example 119], for which the melting point was in the range of 124 to 128 °C. For the same compound, the IC50 in data set [1] was > 100 µM. Further, in data set [2], the IC50 is > 100 µM.

`N#C/C(=C\c1ccccc1O)S(=O)(=O)Cc1ccc(Cl)cc1` [Example 121] yielded a melting point of 171 to 176 °C. Besides, the IC50 in data set [1] is > 100 µM. In data set [2], the IC50 was > 100 µM.

Compound `N#C/C(=C\c1ccoc1)S(=O)(=O)Cc1ccc(Cl)cc1` [Example 122] gave a melting point of 150 to 154 °C. In addition, in data set [1], the IC50 was > 100 µM. Moreover, the IC50 in data set [2] was > 100 µM.

With `Cc1ccc(/C=C(\C#N)S(=O)(=O)Cc2ccc(Cl)cc2)s1` [Example 123], the melting point is 148 to 152 °C. The IC50 in data set [1] is > 100 µM. Moreover, the IC50 in data set [2] was > 100 µM.

In the case of `N#C/C(=C\c1cccc(O)c1)S(=O)(=O)Cc1ccccc1` [Example 124], the melting point was 132 to 135 °C. In addition, in data set [1], the IC50 was > 100 µM. In addition, the IC50 in data set [2] is 50 to 100 µM.

`N#C/C(=C\c1ccccc1O)S(=O)(=O)Cc1ccccc1` [Example 125] gave a melting point of 135 to 138 °C. The IC50 in data set [1] lay within 50 to 100 µM. Moreover, the IC50 in data set [2] is > 100 µM.

In turn, `COc1ccccc1/C=C(\C#N)S(=O)(=O)Cc1ccccc1` [Example 126] gave a melting point of 169 to 172 °C. In addition, in data set [1], the IC50 was > 100 µM. Also, the IC50 in data set [2] is > 100 µM.

Regarding `Cc1ccoc1/C=C(\C#N)S(=O)(=O)Cc1ccccc1` [Example 128], the melting point was 118 to 121 °C. For the same compound, the IC50 in data set [1] is > 100 µM. The same compound yielded an IC50 in data set [2] of 50 to 100 µM.

The values are drawn from patent US20090191193A1, “Aryl Vinyl Sulfides, Sulfones, Sulfoxides and Sulfonamides, Derivatives Thereof and Therapeutic Uses Thereof” (TEMPLE UNIVERSITY-OF THE COMMONWEALTH SYSTEM OF HIGHER …, priority 2006, published 2009).
